From patent US20240190916A1, “NOVEL PEPTIDE” (HYSENSBIO, priority 2022, published 2024)

Key:
Format in all cases: cell-based
DMP1 gene = experiment: DMP1 mRNA level by real-time PCR in human-derived mesenchymal stem cells; details: compared to untreated control
Method: (§1) It was cultured at 37° C. in humid air containing 5% CO2 and used for the experiment. Human mesenchymal stem cells (hBMSCs) were purchased from Lonza (LONZA, Switzerland) and used. hBMSCs were cultured in a-MEM (Invitrogen) medium supplemented with 10% heat-inactivated bovine serum.
(§2) Total RNA of human dental pulp cells and mesenchymal stem cells was isolated using a TRIzol reagent. cDNA was synthesized using 2 μg of total RNA, 1 μl of reverse transcriptase, and 0.5 μg of oligo (dT). The synthesized cDNA was used for real-time polymerase chain reaction. The real-time polymerase chain reaction was performed in ABI PRISM 7500 sequence detection system (Applied Biosystems) using SYBR GREEN PCR Master Mix (Takara, Japan). The real-time polymerase chain reaction was performed at 94° C., 1 min; 95° C., 15 sec-60° C., 34 sec was performed under the condition of repeating 40 cycles. An analysis of the results was evaluated using a comparative cycle threshold (CT) method, and primer base sequences are listed in Table 9.
(§3) BSP and DMP1 genes are used as markers for differentiation of osteoblasts and cementoblasts, and are known as important genes for calcification of a bone and cementum. The effects of each group of peptides on BSP and DMP1 mRNA expression were confirmed by a real-time PCR (Tables 11 and 12).

BSP gene = experiment: BSP mRNA level by real-time PCR in human-derived mesenchymal stem cells; details: compared to untreated control
Method: as §1, §2, §3

DSPP gene = experiment: DSPP mRNA level by real-time PCR in human dental pulp cells; details: peptide 10 ug/ml, compared to untreated control
Method: Human pulp tissue cells were isolated from wisdom teeth of 10 adults (18-22 years old) at Seoul National University Dental Hospital. Specifically, all experiments were performed with the patient's consent after approval from the hospital's Institutional Review Board, and wisdom teeth are cut according to a method of Jung H S et al (J Mol Histol. (2011)), exposing the pulp and isolating the pulp with forceps. The isolated pulp was minced on both sides, placed in a 60 mm dish, covered with a cover slip, and then cultured in Dulbecco's Modified Eagle medium. It is known that human dental pulp cells can differentiate into odontoblasts, osteoblasts, cementoblasts and periodontal ligament cells under various conditions (Tissue Eng Part A. 2014 April; 20(7-8): 1342-51).
as §2
The effect of each group of peptides on DSPP mRNA expression was confirmed by real-time PCR (Table 10).

Sequence | mRNA level of DMP1 gene, DMP1 gene expression, Average (DMP1 gene) [fold] | mRNA level of BSP gene, BSP gene expression, Average (BSP gene) [fold] | mRNA level of DSPP gene, Average (DSPP gene) [fold]
KYAKKKKNYK [SEQ ID NO: 33] | 7.709 | 2.092 | 1.813
KYAKKKKSYK [SEQ ID NO: 41] | 7.727 | 1.762 | 1.897
KYAKKKRNYK [SEQ ID NO: 34] | 7.031 | 2.136 | 2.361
KYAKKKRSYK [SEQ ID NO: 42] | 7.367 | 1.882 | 1.811
KYAKKRKNYK [SEQ ID NO: 35] | 7.527 | 2.372 | 1.572
KYAKKRKSYK [SEQ ID NO: 43] | 6.791 | 2.011 | 1.620
KYAKKRRNYK [SEQ ID NO: 37] | 7.032 | 1.999 | 1.67
KYAKKRRSYK [SEQ ID NO: 45] | 7.309 | 1.878 | 2.125
KYAKRKKNYK [SEQ ID NO: 36] | 6.999 | 2.207 | 1.702
KYAKRKKSYK [SEQ ID NO: 44] | 7.663 | 1.699 | 2.121
KYAKRKRNYK [SEQ ID NO: 40] | 7.635 | 2.102 | 2.121
KYAKRKRSYK [SEQ ID NO: 48] | 6.757 | 1.773 | 2.516
KYAKRRKNYK [SEQ ID NO: 38] | 7.777 | 2.507 | 1.705
KYAKRRKSYK [SEQ ID NO: 46] | 7.294 | 1.863 | 1.836
KYAKRRRNYK [SEQ ID NO: 39] | 6.989 | 2.293 | 2.015
KYAKRRRSYK [SEQ ID NO: 47] | 7.107 | 2.063 | 1.620
KYARKKKNYK [SEQ ID NO: 49] | 6.789 | 1.971 | 1.798
KYARKKKSYK [SEQ ID NO: 57] | 6.059 | 1.679 | 1.886
KYARKKRNYK [SEQ ID NO: 50] | 6.109 | 1.901 | 1.661
KYARKKRSYK [SEQ ID NO: 58] | 5.999 | 1.811 | 1.811
KYARKRKNYK [SEQ ID NO: 51] | 5.272 | 1.899 | 2.572
KYARKRKSYK [SEQ ID NO: 59] | 5.510 | 1.629 | 2.120
KYARKRRNYK [SEQ ID NO: 53] | 6.483 | 2.036 | 2.037

Sequence | mRNA level of DMP1 gene, DMP1 gene expression, Average (DMP1 gene) [fold] | mRNA level of BSP gene, BSP gene expression, Average (BSP gene) [fold] | mRNA level of DSPP gene, Average (DSPP gene) [fold]
KYARKRRSYK [SEQ ID NO: 61] | 5.787 | 1.832 | 1.525
KYARRKKNYK [SEQ ID NO: 52] | 5.991 | 1.999 | 2.102
KYARRKKSYK [SEQ ID NO: 60] | 5.078 | 1.991 | 2.195
KYARRKRNYK [SEQ ID NO: 56] | 5.798 | 2.016 | 2.021
KYARRKRSYK [SEQ ID NO: 64] | 6.123 | 2.021 | 1.606
KYARRRKNYK [SEQ ID NO: 54] | 6.531 | 2.1 | 2.005
KYARRRKSYK [SEQ ID NO: 62] | 5.333 | 1.769 | 1.836
KYARRRRNYK [SEQ ID NO: 55] | 6.111 | 1.773 | 1.921
KYARRRRSYK [SEQ ID NO: 63] | 5.727 | 2.237 | 2.120
KYKAKKKSYK [SEQ ID NO: 9] | 9.869 | 2.084 | 3.057
KYKAKKRNYK [SEQ ID NO: 2] | 10.361 | 2.713 | 7.361
KYKAKKRSYK [SEQ ID NO: 10] | 9.998 | 1.998 | 3.811
KYKAKRKNYK [SEQ ID NO: 3] | 11.271 | 2.715 | 8.572
KYKAKRKSYK [SEQ ID NO: 11] | 8.795 | 2.226 | 3.362
KYKAKRRNYK [SEQ ID NO: 5] | 11.001 | 2.77 | 6.67
KYKAKRRSYK [SEQ ID NO: 13] | 9.237 | 2.637 | 2.535
KYKARKKNYK [SEQ ID NO: 4] | 9.720 | 2.307 | 9.702
KYKARKKSYK [SEQ ID NO: 12] | 7.997 | 1.918 | 2.911
KYKARKRNYK [SEQ ID NO: 8] | 11.120 | 2.617 | 7.021
KYKARKRSYK [SEQ ID NO: 16] | 10.014 | 2.307 | 2.906
KYKARRKNYK [SEQ ID NO: 6] | 9.897 | 2.935 | 7.705
KYKARRKSYK [SEQ ID NO: 14] | 9.407 | 1.729 | 2.136
KYKARRRNYK [SEQ ID NO: 7] | 10.236 | 2.548 | 8.215
